Results: patent publication US20260225997A1, “IONIZABLE AMINE LIPIDS” (Intellia Therapeutics, Inc., priority 2018, published 2026)
Like-named read-outs stand apart in the source and are kept apart here. Blank lines part the entries; values can stand above or below the compound they belong to.

Columns and labels:
[1] = pKa measurement of unformulated amine lipid (fluorescence, method of Jayaraman et al.); format: physicochemical; conditions: 100 μM in 0.1 M phosphate buffer pH 4.5-9.0
Protocol: The pKa of each amine lipid was determined according to the method in Jayaraman, et al. (Angewandte Chemie, 2012) with the following adaptations. […] Lipid was diluted to 100 μM in 0.1 M phosphate buffer (Boston Bioproducts) where the pH ranged from 4.5-9.0. Fluorescence intensity was measured using excitation and emission wavelengths of 321 nm and 448 nm.

[2] = LNP average particle size and polydispersity by dynamic light scattering (Malvern Zetasizer); format: physicochemical
Description: The LNPs have a size of about 1 to about 1,000 nm, about 10 to about 500 nm, about 20 to about 500 nm, in a sub-embodiment about 50 to about 400 nm, in a sub-embodiment about 50 to about 300 nm, in a sub-embodiment about 50 to about 200 nm, and in a sub-embodiment about 50 to about 150 nm, and in another sub-embodiment about 60 to about 120 nm. Preferably, the LNPs have a size from about 60 nm to about 100 nm. The average sizes (diameters) of the fully formed LNP, may be measured by dynamic light scattering on a Malvern Zetasizer. The LNP sample is diluted in phosphate buffered saline (PBS) so that the count rate is approximately 200-400 kcps. The data is presented as a weighted average of the intensity measure.
The LNPs disclosed herein have a size (e.g. Z-average diameter) of about 1 to about 250 nm. In some embodiments, the LNPs have a size of about 10 to about 200 nm. In further embodiments, the LNPs have a size of about 20 to about 150 nm. In some embodiments, the LNPs have a size of about 50 to about 150 nm. In some embodiments, the LNPs have a size of about 50 to about 100 nm. In some embodiments, the LNPs have a size of about 50 to about 120 nm. In some embodiments, the LNPs have a size of about 60 to about 100 nm. In some embodiments, the LNPs have a size of about 75 to about 150 nm. In some embodiments, the LNPs have a size of about 75 to about 120 nm. In some embodiments, the LNPs have a size of about 75 to about 100 nm. Unless indicated otherwise, all sizes referred to herein are the average sizes (diameters) of the fully formed nanoparticles, as measured by dynamic light scattering on a Malvern Zetasizer. The nanoparticle sample is diluted in phosphate buffered saline (PBS) so that the count rate is approximately 200-400 kcps. The data is presented as a weighted-average of the intensity measure (Z-average diameter).
Dynamic Light Scattering (“DLS”) is used to characterize the polydispersity index (“pdi”) and size of the LNPs of the present disclosure. DLS measures the scattering of light that results from subjecting a sample to a light source. PDI, as determined from DLS measurements, represents the distribution of particle size (around the mean particle size) in a population, with a perfectly uniform population having a PDI of zero.
LNP compositions are analyzed for average particle size, polydispersity index (pdi), total RNA content, encapsulation efficiency of RNA, and zeta potential. LNP compositions may be further characterized by lipid analysis, AF4-MALS, NTA, and/or cryo-EM. Average particle size and polydispersity are measured by dynamic light scattering (DLS) using a Malvern Zetasizer DLS instrument. LNP samples were diluted with PBS buffer prior to being measured by DLS. Z-average diameter which is an intensity-based measurement of average particle size was reported along with number average diameter and pdi. A Malvern Zetasizer instrument is also used to measure the zeta potential of the LNP. Samples are diluted 1:17 (50 μL into 800 μL) in 0.1×PBS, pH 7.4 prior to measurement.

[3] = RNA encapsulation efficiency of LNP (Ribogreen fluorescence assay); format: physicochemical; conditions: N:P 6.0
Protocol: A fluorescence-based assay (Ribogreen®, ThermoFisher Scientific) is used to determine total RNA concentration and free RNA. Encapsulation efficiency is calculated as (Total RNA−Free RNA)/Total RNA. LNP samples are diluted appropriately with 1× TE buffer containing 0.2% Triton-X 100 to determine total RNA or 1× TE buffer to determine free RNA. Standard curves are prepared by utilizing the starting RNA solution used to make the compositions and diluted in 1× TE buffer+/−0.2% Triton-X 100. Diluted RiboGreen® dye (according to the manufacturer's instructions) is then added to each of the standards and samples and allowed to incubate for approximately 10 minutes at room temperature, in the absence of light. A SpectraMax M5 Microplate Reader (Molecular Devices) is used to read the samples with excitation, auto cutoff and emission wavelengths set to 488 nm, 515 nm, and 525 nm respectively. Total RNA and free RNA are determined from the appropriate standard curves.
Encapsulation efficiency is calculated as (Total RNA−Free RNA)/Total RNA. The same procedure may be used for determining the encapsulation efficiency of a DNA-based cargo component. For single-strand DNA Oligreen Dye may be used, and for double-strand DNA, Picogreen Dye.

TTR [4] = test: TTR editing in mouse liver by NGS after i.v. LNP delivery of Cas9 mRNA and sgRNA; format: in vivo; conditions: CD-1 female mice
Protocol: Preparations of various LNP compositions were prepared with amine lipids. In assays for percent liver editing in mice, Cas9 mRNA and chemically modified sgRNA were formulated in LNPs, at either a 1:1 w/w ratio or a 1:2 w/w ratio. LNPs are formulated with a composition of a given ionizable lipid (e.g. an amine lipid), DSPC, cholesterol, and PEG-2k-DMG, with a 6.0 N:P ratio.
(§1) CD-1 female mice, ranging from 6-10 weeks of age were used in each study. Animals were weighed and grouped according to body weight for preparing dosing solutions based on group average weight. LNPs were dosed via the lateral tail vein in a volume of 0.2 mL per animal (approximately 10 mL per kilogram body weight). The animals were periodically observed post dose for adverse effects for at least 24 hours post dose. Animals were euthanized at 6 or 7 days by exsanguination via cardiac puncture under isoflurane anesthesia. Blood was collected into serum separator tubes or into tubes containing buffered sodium citrate for plasma as described herein. For studies involving in vivo editing, liver tissue was collected from each animal for DNA extraction and analysis.
Cohorts of mice were measured for liver editing by Next-Generation Sequencing (NGS).
In brief, to quantitatively determine the efficiency of editing at the target location in the genome, genomic DNA was isolated and deep sequencing was utilized to identify the presence of insertions and deletions introduced by gene editing.
PCR primers were designed around the target site (e.g., B2M), and the genomic area of interest was amplified. Additional PCR was performed according to the manufacturer's protocols (Illumina) to add the necessary chemistry for sequencing. The amplicons were sequenced on an Illumina MiSeq instrument. The reads were aligned to the […] after eliminating those having low quality scores. The resulting files containing the reads were mapped to the reference genome (BAM files), where reads that overlapped the target region of interest were selected and the number of wild type reads versus the number of reads which contain an insertion, substitution, or deletion was calculated.
The editing percentage (e.g., the “editing efficiency” or “percent editing”) is defined as the total number of sequence reads with insertions or deletions over the total number of sequence reads, including wild type.
CD-1 female mice were dosed i.v. at 0.1 mpk or 0.3 mpk. At 6 days post-dose, animals were sacrificed. For animals dosed with G282 targeting TTR, blood and the liver were collected and serum TTR and editing were measured. For animals dosed with G650 targeting B2M, liver was collected and editing was measured.

TTR [5] = test: Transthyretin (TTR) ELISA analysis of mouse serum after LNP dosing; format: in vivo; conditions: for response vs control in vivo at 0.1 mg/kg / inhibition in vivo at 0.03 mg/kg: Mus musculus, iv; for response vs control in vivo at 0.1 mg/kg: read-out: Serum TTR % TSS; for inhibition in vivo at 0.03 mg/kg: read-out: Serum TTR (% KD)
Protocol: as §1
CD-1 female mice were dosed i.v. at 0.1 mpk or 0.3 mpk. […] For animals dosed with G282 targeting TTR, blood and the liver were collected and serum TTR and editing were measured. For animals dosed with G650 targeting B2M, liver was collected and editing was measured.
Blood was collected and the serum was isolated as indicated. The total mouse TTR serum levels were determined using a Mouse Prealbumin (Transthyretin) ELISA Kit (Aviva Systems Biology, Cat. OKIA00111). Briefly, sera were serial diluted with kit sample diluent to a final dilution of 10,000-fold for 0.1 mpk dose and 2,500-fold for 0.3 mpk. This diluted sample was then added to the ELISA plates and the assay was then carried out according to directions.

[6] = Table 18, Example 60: LNP, G502 1:2
[7] = Table 18, Example 60: LNP, G502 (TTR), sgRNA:Cas9 mRNA 1:2 w/w
[8] = Example 60: 0.1 mpk i.v., 6 days post-dose, G502 1:2
[9] = 144 h, Example 60: 0.1 mpk i.v., 6 days post-dose, G502 1:2
[10] = Table 16, Example 59: LNP, G282 1:1
[11] = Example 59: 0.1 mpk i.v., 7 days post-dose, G282 1:1
[12] = Table 26, Example 64: LNP, G282 1:1
[13] = Table 26, Example 64: LNP, G282 (TTR) 1:1 w/w
[14] = Example 64: Dose 0.03 mpk (table) i.v., 7 days post-dose, G282 1:1
[15] = 168 h, Example 64: Dose 0.03 mpk (table) i.v., 7 days post-dose, G282 1:1
[16] = Table 14, Example 58: LNP, G282 1:1
[17] = Table 14, Example 58: LNP, G282 (TTR) 1:1 w/w
[18] = Example 58: 0.1 mpk i.v., 6 days post-dose, G282 1:1
[19] = 144 h, Example 58: 0.1 mpk i.v., 6 days post-dose, G282 1:1

Structure (SMILES): CCCCCCCCCOC(=O)CCCCCCCN(CCO)CCCCCCC(OCCCCCCC)OCCCCCCC [Compound 20, nonyl 8-((7,7-bis(heptyloxy)heptyl)(2-hydroxyethyl)amino)octanoate]
pKa [1]: 5.81 | Num Ave Size (nm) [2, 10]: 58.65 nm | PDI [2, 10]: 0.102 | Z-Ave Size (nm) [2, 10]: 84.49 nm | Encapsulation (%) ([3]; Table 16, Example 59: LNP, G282 (TTR) 1:1 w/w): 83% | Editing Mean % Indel (TTR [4]; [11]): 35.0% | Serum TTR (TTR [5]; [11]): 210 µg/mL | response vs control in vivo at 0.1 mg/kg (TTR [5]; 168 h, Example 59: 0.1 mpk i.v., 7 days post-dose, G282 1:1): 23%

Structure (SMILES): CCCCCCCCCOC(=O)CCCCCCCN(CCCCCCC(OCCCCCCCC)OCCCCCCCC)CCCOC(=O)NC [Compound 40, nonyl 8-((7,7-bis(octyloxy)heptyl)(3-((methylcarbamoyl)oxy)propyl)amino)octanoate]
pKa [1]: 5.71 | Num Ave Size (nm) [2, 12]: 64 nm | PDI [2, 12]: 0.06 | Z-Ave Size (nm) [2, 12]: 83 nm | Encapsulation (%) [3, 13]: 96% | Editing Mean % Indel (TTR [4]; [14]): 27.5% | Serum TTR (TTR [5]; [14]): 417.0 µg/mL | inhibition in vivo at 0.03 mg/kg (TTR [5]; [15]): 27.2%

Structure (SMILES): CCCCCCCCCOC(=O)CCCCCCCN(CCCCCCC(OCCCCCCCC)OCCCCCCCC)CCCNC(=O)OC [Compound 43, nonyl 8-((7,7-bis(octyloxy)heptyl)(3-((methoxycarbonyl)amino)propyl)amino)octanoate]
pKa [1]: 6.02 | Num Ave Size (nm) [2, 12]: 56 nm | PDI [2, 12]: 0.05 | Z-Ave Size (nm) [2, 12]: 74 nm | Encapsulation (%) [3, 13]: 94% | Editing Mean % Indel (TTR [4]; [14]): 8.6% | Serum TTR (TTR [5]; [14]): 619.2 µg/mL | inhibition in vivo at 0.03 mg/kg (TTR [5]; [15]): -8.1%

Now from value to compound, other results behind:

pKa [1]: 6.04 | Num Ave Size (nm) [2, 6]: 61.86 nm | PDI [2, 6]: 0.054 | Z-Ave Size (nm) [2, 6]: 79.04 nm | Encapsulation (%) [3, 7]: 93%
Structure (SMILES): CCCCCCCCOC(CCCCCCCN(CCO)CCCCCCCCOC(=O)CCCCCCCC)OCCCCCCCC [Compound 23, 8-((8,8-bis(octyloxy)octyl)(2-hydroxyethyl)amino)octyl nonanoate]
Editing Mean % Indel (TTR [4]; [8]): 53.6% | Serum TTR (TTR [5]; [8]): 307 µg/mL | response vs control in vivo at 0.1 mg/kg (TTR [5]; [9]): 22%

pKa [1]: 6.35 | Num Ave Size (nm) [2, 16]: 63.34 nm | PDI [2, 16]: 0.04 | Z-Ave Size (nm) [2, 16]: 77.34 nm | Encapsulation (%) [3, 17]: 98%
Structure (SMILES): CCCCCCCCCCCOC(=O)CCCCCN(CCO)CCCCCCCC(OCCCCCCCC)OCCCCCCCC [Compound 13, undecyl 6-((8,8-bis(octyloxy)octyl)(2-hydroxyethyl)amino)hexanoate]
Editing Mean % Indel (TTR [4]; [18]): 22.6% | Serum TTR (TTR [5]; [18]): 703 µg/mL | response vs control in vivo at 0.1 mg/kg (TTR [5]; [19]): 71%

pKa [1]: 6.18 | Num Ave Size (nm) [2, 6]: 66.68 nm | PDI [2, 6]: 0.029 | Z-Ave Size (nm) [2, 6]: 82.91 nm | Encapsulation (%) [3, 7]: 98%
Structure (SMILES): CCCCCCCCCCC(=O)OCCCCCCN(CCO)CCCCCCCC(OCCCCCCCC)OCCCCCCCC [Compound 22, 6-((8,8-bis(octyloxy)octyl)(2-hydroxyethyl)amino)hexyl undecanoate]
Editing Mean % Indel (TTR [4]; [8]): 45.6% | Serum TTR (TTR [5]; [8]): 410 µg/mL | response vs control in vivo at 0.1 mg/kg (TTR [5]; [9]): 29%

pKa [1]: 6.35 | Num Ave Size (nm) [2, 16]: 54.58 nm | PDI [2, 16]: 0.137 | Z-Ave Size (nm) [2, 16]: 89.3 nm | Encapsulation (%) [3, 17]: 86%
Structure (SMILES): CCCCCCCCOC(CCCCCCCN(CCO)CCCCCCCCCC(=O)OCCCCCCC)OCCCCCCCC [Compound 11, heptyl 10-((8,8-bis(octyloxy)octyl)(2-hydroxyethyl)amino)decanoate]
Editing Mean % Indel (TTR [4]; [18]): 29.4% | Serum TTR (TTR [5]; [18]): 553 µg/mL | response vs control in vivo at 0.1 mg/kg (TTR [5]; [19]): 56%
